# From ChEMBL document CHEMBL1201862, “PubChem BioAssay data set” (2004)
# Active and inactive are the calls of the source.
# Tests used:
# [1] = viability loss in CEM21 cells – cell-based, CellTiter-Glo luminescence, cherry-picked, cytotoxicity control for viral fusion inhibitor project, dose response (AID 652042); assay type: functional;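 also: potency for signal decrease meaning cytotoxicity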
# [2] = blockers of HIV-1 ZM109 envelope-driven cell-cell fusion – HeLa effector, CEM target cells, luciferase, cherry-pick, dose response (AID 652058); assay type: functional, cell-based;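 also: luciferase signal from HIV-1 Env mediated cell-cell fusion of effector and target cells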
# [3] = target: T1, Ubiquitin-conjugating enzyme E2 N (Homo sapiens, UniProt P61088); assay type: functional;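 also: Dose-response confirmation in a TR-FRET assay detecting UBC13-driven polyubiquitin chain formation, inhibition measured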
# T1 sequence (P61088 whole entry): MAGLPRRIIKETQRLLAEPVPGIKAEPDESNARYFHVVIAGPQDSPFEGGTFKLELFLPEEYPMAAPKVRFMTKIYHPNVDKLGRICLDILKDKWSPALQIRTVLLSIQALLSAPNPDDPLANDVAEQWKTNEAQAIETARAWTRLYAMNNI
# [4] = HIV-1 AD8 envelope cell-cell fusion blockers – cherry-pick, dose response (AID 652062); assay type: functional, cell-based;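 also: luciferase signal from cell-cell fusion driven by HIV-1 clade B AD8 Env; potency is for inhibitors of fusion seen as a drop in luminescence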
# [5] = target: Glucose-6-phosphate 1-dehydrogenase (Homo sapiens, UniProt P11413); test: inhibition of Homo sapiens G6PD, dose series – biochemical, fluorescence, selectivity assay for P. falciparum G6PD inhibitor project, dose response (AID 504792); assay type: functional
# [6] = blockers of HIV-1 envelope-mediated cell-cell fusion – cherry-pick, dose response (AID 652057); assay type: functional, cell-based
# [7] = off-target signal loss in HeLa-CEM21 co-culture – HeLa F-luc CTL cells, cherry-picked, counter-screen for HIV-1 Env fusion inhibitor project, dose response (AID 652040); assay type: functional, cell-based;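 also: potency for signal decrease marking cytotoxic or nonspecific inhibition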
# [8] = target: Dual specificity tyrosine-phosphorylation-regulated kinase 1A (Rattus norvegicus, UniProt Q63470); assay type: biochemical, Homo sapiens
# [9] = tested on: Streptococcus sp. 'group A'; test: Streptococcus pyogenes SK(-)GAS viability under kanamycin – luminescence, BacTiterGlo, confirmation, counter-screen for streptokinase expression inhibitor project, dose response (AID 1900); assay type: functional, organism-based
# Streptococcus = test: GAS UMAA2166 growth inhibition – luminescence, BacTiterGlo, counter-screen for streptokinase expression inhibitor project, dose response (AID 1915); assay type: functional, organism-based;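 also: potency for reduction of bacterial viability or growth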
# [10] = target: T2, Low molecular weight phosphotyrosine protein phosphatase (Homo sapiens, UniProt P24666); assay type: functional; conditions: read-out: IC50_Mean;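 also: Dose-response confirmation assay measuring inhibition of LMPTP enzyme activity by fluorescence intensity read-out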
# T2 sequence (P24666 whole entry): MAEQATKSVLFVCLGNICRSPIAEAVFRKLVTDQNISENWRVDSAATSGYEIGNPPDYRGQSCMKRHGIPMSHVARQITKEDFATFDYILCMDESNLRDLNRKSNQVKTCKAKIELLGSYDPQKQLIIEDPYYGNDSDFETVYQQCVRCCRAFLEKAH
# Genome polyprotein = Genome polyprotein (dengue virus type 2, UniProt P29990); test: flavivirus cap methylation enzyme inhibition – biochemical, confirmation dose response, primary screen (AID 588689); assay type: functional
# [11] = target: T3, Endoribonuclease toxin MazF (Escherichia coli K-12, UniProt P0AE70); test: activation of MazEF endoribonuclease cleavage – biochemical, fluorescence, single-stranded RNA substrate, uHTS hits, dose response (AID 588481); assay type: functional
# T3 sequence (P0AE70 whole entry): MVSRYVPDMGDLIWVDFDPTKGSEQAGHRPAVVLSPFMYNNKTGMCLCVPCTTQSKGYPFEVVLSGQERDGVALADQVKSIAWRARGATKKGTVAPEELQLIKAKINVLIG
# [12] = target: T3, Endoribonuclease toxin MazF; test: substrate-only fluorescence increase artefacts – biochemical, single-stranded RNase substrate, counter-screen for MazEF activator project, dose response (AID 588502); assay type: functional
# BJ [13] = test: BJ-TERT fibroblast viability loss – cell-based, RAS-independent, luminescence, dose response (AID 1933); assay type: functional; conditions: Homo sapiens
# BJ [14] = test: cells; assay type: functional, cell-based; conditions: Homo sapiens
# BJ [15] = test: BJ-TERT-LT-ST fibroblast viability loss – cell-based, RAS-independent, luminescence, dose response (AID 1935); assay type: functional; conditions: Homo sapiens;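 also: BJ fibroblasts immortalized with TERT plus LT and ST oncogenes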
# [16] = decrease of insulin promoter-GFP reporter – imaging, high-content screening, mouse beta cells (AID 1628); assay type: functional; conditions: MIN6
# [17] = target: T4, Microphthalmia-associated transcription factor (Homo sapiens, UniProt O75030); test: reducers of TRPM1 reporter luminescence, concentration series – cell-based, SK-MEL-5, cherry-picked, set 3, MITF inhibitor project, dose response (AID 493073); assay type: functional;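 also: SK-MEL-5 melanoma cells with luciferase driven by the MITF target TRPM1 promoter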
# T4 sequence (O75030 whole entry): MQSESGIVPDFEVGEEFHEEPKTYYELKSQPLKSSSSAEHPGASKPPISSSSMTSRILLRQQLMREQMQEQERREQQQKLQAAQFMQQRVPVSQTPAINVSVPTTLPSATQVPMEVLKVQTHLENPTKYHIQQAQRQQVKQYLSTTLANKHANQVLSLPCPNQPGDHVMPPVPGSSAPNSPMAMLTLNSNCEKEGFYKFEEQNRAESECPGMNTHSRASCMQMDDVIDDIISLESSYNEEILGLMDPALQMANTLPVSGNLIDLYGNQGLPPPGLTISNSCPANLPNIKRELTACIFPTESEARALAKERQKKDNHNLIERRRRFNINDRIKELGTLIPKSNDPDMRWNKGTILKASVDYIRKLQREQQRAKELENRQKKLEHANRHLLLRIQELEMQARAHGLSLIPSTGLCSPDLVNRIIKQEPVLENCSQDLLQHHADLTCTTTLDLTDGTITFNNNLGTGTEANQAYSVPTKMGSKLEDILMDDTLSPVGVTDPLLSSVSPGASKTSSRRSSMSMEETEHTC
# [18] = DRD fibroblast viability loss – cell-based, non-viral oncogenic, luminescence, dose response (AID 1934); assay type: functional; conditions: Homo sapiens
# [19] = MIN6 cell viability loss – mouse insulinoma, cytotoxicity control, dose response (AID 2122); assay type: functional;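 also: confirmatory high-throughput counterscreen run to flag cytotoxic compounds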
# [20] = target: T5, Apoptotic protease-activating factor 1 (Homo sapiens, UniProt O14727); assay type: functional
# T5 sequence (O14727 whole entry): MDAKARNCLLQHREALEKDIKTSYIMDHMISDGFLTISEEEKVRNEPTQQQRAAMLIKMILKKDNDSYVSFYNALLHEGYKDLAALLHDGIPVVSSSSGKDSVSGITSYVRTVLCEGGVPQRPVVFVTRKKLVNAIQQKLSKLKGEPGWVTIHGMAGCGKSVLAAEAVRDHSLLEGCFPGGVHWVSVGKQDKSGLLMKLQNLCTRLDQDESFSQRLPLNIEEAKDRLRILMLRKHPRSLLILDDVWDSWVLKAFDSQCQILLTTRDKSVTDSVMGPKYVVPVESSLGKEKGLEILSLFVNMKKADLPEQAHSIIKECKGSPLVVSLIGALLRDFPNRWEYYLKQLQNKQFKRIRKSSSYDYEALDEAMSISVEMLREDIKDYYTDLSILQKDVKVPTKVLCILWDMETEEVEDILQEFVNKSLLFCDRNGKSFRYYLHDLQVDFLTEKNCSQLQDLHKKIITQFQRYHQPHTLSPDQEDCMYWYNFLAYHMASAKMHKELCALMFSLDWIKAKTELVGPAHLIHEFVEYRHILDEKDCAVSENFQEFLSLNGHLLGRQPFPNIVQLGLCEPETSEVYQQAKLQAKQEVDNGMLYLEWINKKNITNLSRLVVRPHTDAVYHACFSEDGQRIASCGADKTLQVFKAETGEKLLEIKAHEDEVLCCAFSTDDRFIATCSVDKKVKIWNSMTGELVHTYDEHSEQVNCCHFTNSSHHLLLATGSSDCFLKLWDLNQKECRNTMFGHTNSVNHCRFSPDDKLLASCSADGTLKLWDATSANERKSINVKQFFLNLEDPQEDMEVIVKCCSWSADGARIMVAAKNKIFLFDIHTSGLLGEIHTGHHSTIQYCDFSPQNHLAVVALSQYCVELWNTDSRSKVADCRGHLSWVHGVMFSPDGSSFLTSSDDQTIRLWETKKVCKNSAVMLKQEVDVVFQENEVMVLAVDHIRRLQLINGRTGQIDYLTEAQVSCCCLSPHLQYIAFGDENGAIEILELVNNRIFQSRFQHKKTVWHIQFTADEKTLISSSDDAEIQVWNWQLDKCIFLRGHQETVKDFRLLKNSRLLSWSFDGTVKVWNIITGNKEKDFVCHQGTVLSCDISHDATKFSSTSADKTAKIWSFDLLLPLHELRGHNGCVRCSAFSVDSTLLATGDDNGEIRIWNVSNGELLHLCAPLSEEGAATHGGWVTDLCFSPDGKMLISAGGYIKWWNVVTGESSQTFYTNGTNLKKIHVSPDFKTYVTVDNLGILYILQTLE
# [21] = Luminescence Cell-Based Dose Retest to Confirm Inhibitors of Cancer Stem Cells. [Related pubchem assays (depositor defined):AID2717, AID2721]; assay type: functional; conditions: Homo sapiens
# INS1 = test: INS-1E survival protection against cytokine death – cell-based, luminescence, retest, dose response (AID 449756); assay type: functional; conditions: Rattus norvegicus;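 also: cell death triggered by IL-1 beta plus TNF-alpha plus IFN-gamma mixture; protective hits raise ATP signal compared with cytokine alone wells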
# Nonstructural protein 1 = Nonstructural protein 1 (Influenza A virus, UniProt Q194T2); assay type: functional, Influenza A virus (A/California/07/2009(H1N1))
# [22] = target: T6, Zinc finger protein mex-5 (Caenorhabditis elegans, UniProt Q9XUB2); test: potency of MEX-5 RNA-binding blockers – biochemical, C. elegans, fluorescence polarization, dose response (AID 1960)
# T6 sequence (Q9XUB2 whole entry): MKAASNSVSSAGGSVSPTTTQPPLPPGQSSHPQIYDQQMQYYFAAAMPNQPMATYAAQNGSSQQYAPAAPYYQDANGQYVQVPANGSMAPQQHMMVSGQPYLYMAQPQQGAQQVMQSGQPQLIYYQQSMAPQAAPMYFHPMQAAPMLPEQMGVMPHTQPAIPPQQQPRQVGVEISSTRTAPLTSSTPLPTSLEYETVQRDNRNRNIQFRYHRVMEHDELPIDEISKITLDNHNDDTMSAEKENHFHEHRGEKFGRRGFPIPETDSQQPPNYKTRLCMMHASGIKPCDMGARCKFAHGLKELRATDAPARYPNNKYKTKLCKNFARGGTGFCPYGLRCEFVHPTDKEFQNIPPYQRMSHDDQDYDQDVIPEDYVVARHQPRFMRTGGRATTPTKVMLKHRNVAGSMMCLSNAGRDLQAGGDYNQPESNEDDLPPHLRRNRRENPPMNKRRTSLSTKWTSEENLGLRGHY
# [23] = target: Induced myeloid leukemia cell differentiation protein Mcl-1 (Homo sapiens, UniProt Q07820); assay type: functional
# [24] = target: T7, RNA-binding protein pos-1 (Caenorhabditis elegans, UniProt G5EF15); test: disruptors of C. elegans POS-1 RNA interaction – biochemical, fluorescence polarization, dose response (AID 1964);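 also: purified POS-1 fused to maltose binding protein made in E. coli; potency of compounds blocking POS-1 binding to fluorescent RNA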
# T7 sequence (G5EF15 whole entry): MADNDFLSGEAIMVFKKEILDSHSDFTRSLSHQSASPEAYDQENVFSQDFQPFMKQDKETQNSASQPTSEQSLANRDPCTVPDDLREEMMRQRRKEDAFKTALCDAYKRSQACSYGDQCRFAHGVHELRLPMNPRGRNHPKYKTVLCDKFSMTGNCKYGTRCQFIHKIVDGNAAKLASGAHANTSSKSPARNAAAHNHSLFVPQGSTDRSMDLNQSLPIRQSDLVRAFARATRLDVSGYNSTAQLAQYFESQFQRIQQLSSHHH
# Glucose-6-phosphate 1-dehydrogenase, sequence (P11413 whole entry, the tested form may be a part): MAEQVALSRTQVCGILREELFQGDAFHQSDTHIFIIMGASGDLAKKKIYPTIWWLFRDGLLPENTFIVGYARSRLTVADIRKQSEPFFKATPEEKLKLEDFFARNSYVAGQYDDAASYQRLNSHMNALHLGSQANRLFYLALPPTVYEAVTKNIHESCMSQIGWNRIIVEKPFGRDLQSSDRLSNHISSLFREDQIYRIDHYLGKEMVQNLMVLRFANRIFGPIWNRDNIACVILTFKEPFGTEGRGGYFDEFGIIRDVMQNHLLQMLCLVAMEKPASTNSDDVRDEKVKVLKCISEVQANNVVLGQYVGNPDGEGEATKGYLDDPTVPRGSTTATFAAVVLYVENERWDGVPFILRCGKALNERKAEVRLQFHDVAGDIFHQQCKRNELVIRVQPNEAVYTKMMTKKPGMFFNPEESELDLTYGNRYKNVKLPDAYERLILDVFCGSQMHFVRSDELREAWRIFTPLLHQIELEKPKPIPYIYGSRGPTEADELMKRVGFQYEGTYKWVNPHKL
# Nonstructural protein 1, sequence (Q194T2 whole entry): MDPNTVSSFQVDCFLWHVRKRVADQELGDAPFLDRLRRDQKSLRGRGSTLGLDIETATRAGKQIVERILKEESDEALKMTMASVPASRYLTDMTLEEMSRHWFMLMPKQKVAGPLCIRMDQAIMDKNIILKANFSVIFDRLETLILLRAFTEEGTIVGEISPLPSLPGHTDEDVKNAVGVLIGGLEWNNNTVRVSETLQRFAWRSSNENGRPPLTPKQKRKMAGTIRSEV
# Induced myeloid leukemia cell differentiation protein Mcl-1, sequence (Q07820 whole entry, the tested form may be a part): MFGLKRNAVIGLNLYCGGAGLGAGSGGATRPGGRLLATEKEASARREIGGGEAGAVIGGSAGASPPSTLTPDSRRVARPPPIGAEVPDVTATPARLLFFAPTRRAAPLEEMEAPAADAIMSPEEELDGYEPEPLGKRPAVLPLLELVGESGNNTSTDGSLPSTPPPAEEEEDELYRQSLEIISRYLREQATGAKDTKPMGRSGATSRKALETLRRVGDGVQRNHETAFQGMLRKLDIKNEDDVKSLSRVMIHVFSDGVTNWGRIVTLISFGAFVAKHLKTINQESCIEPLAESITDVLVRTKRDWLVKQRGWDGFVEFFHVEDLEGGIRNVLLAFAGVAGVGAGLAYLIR
# Genome polyprotein, sequence (P29990 2492-3391 limits assumed): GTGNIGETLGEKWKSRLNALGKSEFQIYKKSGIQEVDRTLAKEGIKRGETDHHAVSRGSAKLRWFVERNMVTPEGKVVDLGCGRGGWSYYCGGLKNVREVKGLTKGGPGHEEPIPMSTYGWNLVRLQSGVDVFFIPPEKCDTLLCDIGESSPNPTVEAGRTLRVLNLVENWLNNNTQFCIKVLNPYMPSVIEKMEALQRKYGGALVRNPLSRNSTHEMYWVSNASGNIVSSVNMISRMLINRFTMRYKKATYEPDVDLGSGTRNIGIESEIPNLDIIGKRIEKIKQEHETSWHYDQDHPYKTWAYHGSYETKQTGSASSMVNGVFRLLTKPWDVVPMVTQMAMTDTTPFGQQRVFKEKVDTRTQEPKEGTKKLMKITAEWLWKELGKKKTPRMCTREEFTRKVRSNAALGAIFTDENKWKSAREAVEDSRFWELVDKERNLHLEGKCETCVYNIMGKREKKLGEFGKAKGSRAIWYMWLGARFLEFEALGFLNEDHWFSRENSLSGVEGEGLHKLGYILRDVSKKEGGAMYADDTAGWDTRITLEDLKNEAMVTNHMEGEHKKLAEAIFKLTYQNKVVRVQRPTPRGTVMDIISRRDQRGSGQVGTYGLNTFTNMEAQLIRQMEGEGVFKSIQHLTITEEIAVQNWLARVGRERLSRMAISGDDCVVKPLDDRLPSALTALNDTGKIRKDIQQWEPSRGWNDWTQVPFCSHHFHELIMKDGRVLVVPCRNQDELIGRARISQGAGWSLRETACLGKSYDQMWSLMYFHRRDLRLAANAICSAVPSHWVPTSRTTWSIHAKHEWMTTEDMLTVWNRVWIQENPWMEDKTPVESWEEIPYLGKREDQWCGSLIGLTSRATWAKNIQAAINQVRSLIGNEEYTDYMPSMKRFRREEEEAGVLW
compound,measurement,setting,value
CCC(C)N(CCNC(=O)c1ccc2c(c1)NC(=O)c1ccccc1S2)C1CCCCC1 (stereo not given),AC50,[1],45.1 µM (active)
same,AC50,[2],0.923 µM (active)
same,IC50,[3],> 20 µM (inactive)
same,AC50,[4],3.82 µM (active)
same,IC50,[5],> 80 µM (inactive)
same,AC50,[6],0.758 µM (active)
same,AC50,[7],1.09 µM (active)
O=C1/C(=C/c2ccc3c(c2)OCO3)Oc2cc(OCC(=O)N3CCC[C@H]3C(=O)O)ccc21,AC50,[8],4.59 µM (active)
CCn1cc(C(=O)O)c(=O)c2cc(F)c(N3CCN(S(=O)(=O)c4ccc5c(c4)OCCO5)CC3)cc21,EC50,[9],2.84 µM (active)
same,EC50,Streptococcus,5.81 µM (active)
same,IC50,[10],5.48 µM (active)
COC(=O)CCC(=O)OC1(C)C(=O)C2=CN(c3ccccc3)C(c3ccc(OC)cc3)=CC2=C(Br)C1=O (stereo not given),IC50,Genome polyprotein,> 100 µM (active)
same,IC50,[5],42.1 µM (inactive)
O=C1N=C(N2CCc3ccccc3C2)S/C1=C\c1ccc(O)cc1,AC50,[8],0.737 µM (active)
Cc1ccc(S(=O)(=O)SCCCSS(=O)(=O)c2ccc(C)cc2)cc1,IC50,[5],26.7 µM (inactive)
O=C(CSc1nnc(-c2ccco2)o1)c1ccc[nH]1,IC50,[10],38.1 µM (inactive)
COC(=O)C1=C(C)N(C)C(C)=C(C(=O)OC)C1c1ccccn1,EC50,[11],> 99 µM (inactive)
same,EC50,[12],56.4 µM (inactive)
Cc1cc(-n2c(C)cc(C(=O)CCl)c2C)no1,EC50,BJ [13],4.75 µM (inconclusive)
same,EC50,BJ [14],2.76 µM (active)
same,EC50,BJ [15],1.91 µM (inconclusive)
same,IC50,[16],3.25 µM (active)
same,AC50,[17],5.5 µM (active)
same,EC50,[18],10.9 µM (inconclusive)
same,IC50,[19],1.66 µM (active)
CCOC(=O)c1cnn(-c2c(Cc3ccccc3)c(C)nc3c(-c4ccccc4)c(C)nn23)c1N,IC50,[20],4 µM (active)
CC(C)n1cnc2c(NCc3ccccc3)cc(N[C@H](C)CO)cc21,AC50,[21],6.67 µM (active)
same,AC50,INS1,1.52 µM (active)
same,IC50,Nonstructural protein 1,61.9 µM (active)
same,IC50,[20],1.22 µM (active)
O=C1C(=Cc2cccn2-c2ccccc2)C(=O)c2ccccc21,EC50,[22],175 µM (active)
same,IC50,[23],4.55 µM (active)
same,EC50,[11],> 99 µM (inactive)
same,EC50,[24],68.6 µM (active)
same,EC50,[12],60.7 µM (inactive)
